Like-named read-outs stand apart in the source and are kept apart here.
How the values were obtained:
Type in all cases: in vivo
[1] = system: Plasmopara vilicola (the causal agent of grape downy mildew); experiment: Test A: grape downy mildew, test suspension sprayed on grape seedlings after inoculation, visual disease rating; details: for pest or weed control at 40 ppm: Plasmopara, 144 h, read-out: Percent Disease Control, Test A
Summary of the method: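 Curative spray: spores applied first, plants kept 24 h in saturated air at 20 °C and dried before treatment, then 5 days at 20 °C plus 24 h saturated. Suspension: acetone (3% of volume) in 1:1 acetone/water, 250 ppm Trem 014, sprayed to run-off (200 ppm ≈ 500 g/ha); visual 0–100 control rating.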

[2] = system: Phytophthora infestans (the causal agent of tomato late blight); experiment: whole plant or invertebrate; details: for pest or weed control at 40 ppm: Phytophthora infestans, 144 h, read-out: Percent Disease Control, Test B
[3] = system: Phytophthora infestans (the causal agent of tomato late blight); experiment: whole plant or invertebrate; details: for pest or weed control at 40 ppm: Phytophthora infestans, 96 h, read-out: Percent Disease Control, Test C
[4] = compounds without asterisk (application rate not given), 100 = 100% disease control, 0 = no control relative to the controls

Row | SMILES | Percent Disease Control, Test A [1, 4] [%] | Percent Disease Control, Test B [2, 4] [%] | Percent Disease Control, Test C [3, 4] [%] | Percent Disease Control, Test A ([1]; * tested at 40 ppm) [%] | Percent Disease Control, Test B ([2]; * tested at 40 ppm) [%] | Percent Disease Control, Test C ([3]; * tested at 40 ppm) [%] | also measured
1 | Cc1cc(C(F)(F)F)nn1CC(=O)N1CCC(c2nc(C3=NOC(CO)(c4ccccc4)C3)cs2)CC1 (stereo not drawn) [Compound 159] | 94 | 100 | 99 | – | – | – | –
2 | Cc1cc(C(F)(F)F)nn1CC(=O)N1CCC(c2nc(Cn3ccc(-c4ccccc4)n3)cs2)CC1 [Compound 160] | 68 | 80 | 17 | – | – | – | –
3 | Cc1ccccc1[C@H]1CC(c2csc(C3CCN(C(=O)Cn4nc(C(F)(F)F)cc4C)CC3)n2)=NO1 [Compound 161, 1-[4-[4-[(5R)-4,5-dihydro-5-(2-methylphenyl)-3-isoxazolyl]-2-thiazolyl]-1-piperidinyl]-2-[5-methyl-3-(trifluoromethyl)-1H-pyrazol-1-yl]ethanone] | – | – | – | – | – | – | pest or weed control at 40 ppm ([1]; * tested at 40 ppm): 100%; pest or weed control at 40 ppm [2]: 100%; pest or weed control at 40 ppm [3]: 99%
4 | Cc1cc(C(F)(F)F)nn1CC(=O)N1CCC(c2nc(C3=NOC(c4cccs4)C3)cs2)CC1 (stereo not drawn) [Compound 162] | – | – | – | 100 | 100 | 99 | –
5 | Cc1cc(C)n(CC(=O)N2CCC(c3nc(C4=NO[C@]5(CCc6ccccc65)C4)cs3)CC2)n1 [Compound 165] | – | – | – | – | – | – | Percent Disease Control, Test A ([1]; ** tested at l0 ppm): 99%; Percent Disease Control, Test B ([2]; ** tested at l0 ppm): 100%; Percent Disease Control, Test C ([3]; ** tested at l0 ppm): 99%
6 | O=C(Cn1nc(Cl)cc1Cl)N1CCC(c2nc(C3=NOC(c4ccccc4)C3)cs2)CC1 (stereo not drawn) [Compound 166] | – | – | – | – | – | – | Percent Disease Control, Test A ([1]; ** tested at l0 ppm): 100%; Percent Disease Control, Test B ([2]; ** tested at l0 ppm): 100%; Percent Disease Control, Test C ([3]; ** tested at l0 ppm): 98%
7 | Cc1cc(C(F)(F)F)nn1CC(=O)N1CCC(c2nc(C3=NOC4(CCCCC4)C3)cs2)CC1 [Compound 169] | 100 | 100 | 99 | – | – | – | –
8 | Cc1cc(C(F)(F)F)nn1CC(=O)N1CCC(c2nc(C3=NOC4(CCOCC4)C3)cs2)CC1 [Compound 173] | – | – | – | 100 | 100 | 99 | –
9 | Cc1cc(C(F)(F)F)nn1CC(=O)N1CCC(c2nc(C3=NOC4(CCCCCC4)C3)cs2)CC1 [Compound 174] | – | – | – | 100 | 100 | 99 | –
10 | CC(=O)N1N=C(c2csc(C3CCN(C(=O)Cn4nc(C(F)(F)F)cc4C)CC3)n2)OC12CCCc1ccccc12 (stereo not drawn) [Compound 177] | – | – | – | 93 | 100 | 99 | –
11 | Cc1cccc(C)c1[C@H]1CC(c2csc(C3CCN(C(=O)Cn4nc(C(F)(F)F)cc4C)CC3)n2)=NO1 [Compound 178, 1-[4-[4-[(5R)-5-(2,6-dimethylphenyl)-4,5-dihydro-3-isoxazolyl]-2-thiazolyl]-1-piperidinyl]-2-[5-methyl-3-(trifluoromethyl)-1H-pyrazol-1-yl]ethanone] | – | – | – | – | – | – | pest or weed control at 40 ppm ([1]; * tested at 40 ppm): 100%; pest or weed control at 40 ppm [2]: 100%; pest or weed control at 40 ppm [3]: 99%
12 | Cc1cc(C)c([C@H]2CC(c3csc(C4CCN(C(=O)Cn5nc(C(F)(F)F)cc5C)CC4)n3)=NO2)c(C)c1 [Compound 179, 1-[4-[4-[(5R)-4,5-dihydro-5-(2,4,6-trimethylphenyl)-3-isoxazolyl]-2-thiazolyl]-1-piperidinyl]-2-[5-methyl-3-(trifluoromethyl)-1H-pyrazol-1-yl]ethanone] | – | – | – | – | – | – | pest or weed control at 40 ppm ([1]; * tested at 40 ppm): 99%; pest or weed control at 40 ppm [2]: 100%; pest or weed control at 40 ppm [3]: 98%
13 | Cc1cc(C(F)(F)F)nn1CC(=O)N1CCC(c2nc(C3=NOC(c4ccncc4)C3)cs2)CC1 (stereo not drawn) [Compound 180] | 50 | 100 | 99 | – | – | – | –
14 | CC(=O)N1N=C(c2csc(C3CCN(C(=O)Cn4nc(C(F)(F)F)cc4C)CC3)n2)OC1c1ccccc1 (stereo not drawn) [Compound 181] | 80 | 100 | 97 | – | – | – | –
15 | CC(=O)N1N=C(c2csc(C3CCN(C(=O)Cn4nc(C(F)(F)F)cc4C)CC3)n2)OC1(C)c1ccccc1 (stereo not drawn) [Compound 182] | 99 | 100 | 97 | – | – | – | –
16 | Cc1cc(C(F)(F)F)nn1CC(=O)N1CCC(c2nc(C3=NNC(c4ccccc4)C3)cs2)CC1 (stereo not drawn) [Compound 183] | – | – | – | 92 | 92 | 33 | –
17 | Cc1cc(C(F)(F)F)nn1CC(=O)N1CCC(c2nc(C3=NN(C)C(c4ccccc4)C3)cs2)CC1 (stereo not drawn) [Compound 184] | – | – | – | 99 | 95 | 73 | –
18 | Cc1cc(C(F)(F)F)nn1CC(=O)N1CCC(c2nc(C3=NO[C@]4(COc5ccccc54)C3)cs2)CC1 [Compound 185, 2-[5-methyl-3-(trifluoromethyl)-1H-pyrazol-1-yl]-1-[4-[4-(3R)-spiro[benzofuran-3(2H),5′(4′H)-isoxazol]-3′-yl-2-thiazolyl]-1-piperidinyl]ethanone] | – | – | – | – | – | – | pest or weed control at 40 ppm ([1]; * tested at 40 ppm): 100%; pest or weed control at 40 ppm [2]: 100%; pest or weed control at 40 ppm [3]: 98%
19 | Cc1cc(C(F)(F)F)nn1CC(=O)N1CCC(c2nc(C3=NOC(N4CCCC4=O)C3)cs2)CC1 (stereo not drawn) [Compound 188] | – | – | – | 99 | 100 | 99 | –

Row | SMILES | Percent Disease Control, Test A [1, 4] [%] | Percent Disease Control, Test B [2, 4] [%] | Percent Disease Control, Test C [3, 4] [%] | Percent Disease Control, Test A ([1]; * tested at 40 ppm) [%] | Percent Disease Control, Test B ([2]; * tested at 40 ppm) [%] | Percent Disease Control, Test C ([3]; * tested at 40 ppm) [%] | also measured
20 | Cc1cc(C(F)(F)F)nn1CC(=O)N1CCC(c2nc(C3=NOC(c4ccccc4Br)C3)cs2)CC1 (stereo not drawn) [Compound 189] | – | – | – | 100 | 100 | 99 | –
21 | Cc1cc(C(F)(F)F)nn1CC(=O)N1CCC(c2nc(CN3C(=O)c4ccccc4C3=O)cs2)CC1 [Compound 191] | 99 | 100 | 99 | – | – | – | –
22 | Cc1cc(C(F)(F)F)nn1CC(=O)N1CCC(c2nc(C3=NOC4(CCCCc5ccccc54)C3)cs2)CC1 (stereo not drawn) [Compound 192] | – | – | – | 99 | 100 | 99 | –
23 | Cc1cc(C(F)(F)F)nn1CC(=O)N1CCC(c2nc(C3=NOC4(CCC4)C3)cs2)CC1 [Compound 193] | – | – | – | 100 | 100 | 99 | –
24 | Cc1cc(C(F)(F)F)nn1CC(=O)N1CCC(c2nc(C3=NOC4(CCN(C(=O)OC(C)(C)C)CC4)C3)cs2)CC1 [Compound 194] | – | – | – | 94 | 100 | 99 | –
25 | Cc1cc(C(F)(F)F)nn1CC(=O)N1CCC(c2nc(C3=NOC4(CCNCC4)C3)cs2)CC1 [Compound 195] | 48 | 92 | 80 | – | – | – | –
26 | CC(=O)N1CCC2(CC1)CC(c1csc(C3CCN(C(=O)Cn4nc(C(F)(F)F)cc4C)CC3)n1)=NO2 [Compound 196] | – | – | – | 99 | 100 | 99 | –
27 | CC(=O)N1N=C(c2csc(C3CCN(C(=O)Cn4nc(C(F)(F)F)cc4C)CC3)n2)CC1c1ccccc1 (stereo not drawn) [Compound 197] | – | – | – | 89 | 100 | 90 | –
28 | Cc1cc(C(F)(F)F)nn1CC(=O)N1CCC(c2nc(C3=NOC(C4OCCO4)C3)cs2)CC1 (stereo not drawn) [Compound 199] | 91 | 99 | 98 | – | – | – | –
29 | Cc1cc(C(F)(F)F)nn1CC(=O)N1CCC(c2nc(C3=NOC(C4(C)CO4)C3)cs2)CC1 (stereo not drawn) [Compound 200] | 80 | 100 | 90 | – | – | – | –
30 | Cc1ncsc1C1CC(c2csc(C3CCN(C(=O)Cn4nc(C(F)(F)F)cc4C)CC3)n2)=NO1 (stereo not drawn) [Compound 201] | – | – | – | 99 | 100 | 99 | –
31 | Cc1cc(C(F)(F)F)nn1CC(=O)N1CCC(c2nc(C3=NOC4c5ccccc5S(=O)(=O)C34)cs2)CC1 (stereo not drawn) [Compound 202] | 95 | 100 | 98 | – | – | – | –
32 | Cc1cc(C(F)(F)F)nn1CC(=O)N1CCC(c2nc(-c3ccon3)cs2)CC1 [Compound 203] | – | – | – | 99 | 100 | 92 | –
33 | Cc1cc(C(F)(F)F)nn1CC(=O)N1CCC(c2nc(C3=NOC(Oc4ccccc4)C3)cs2)CC1 (stereo not drawn) [Compound 204] | – | – | – | 99 | 100 | 99 | –
34 | Cc1ccccc1C1(C)CC(c2csc(C3CCN(C(=O)Cn4nc(C(F)(F)F)cc4C)CC3)n2)=NO1 (stereo not drawn) [Compound 205] | – | – | – | 99 | 100 | 99 | –
35 | COc1cccc(OC)c1C1CC(c2csc(C3CCN(C(=O)Cn4nc(C(F)(F)F)cc4C)CC3)n2)=NO1 (stereo not drawn) [Compound 206] | – | – | – | 99 | 100 | 99 | –
36 | Cc1cc(C(F)(F)F)nn1CC(=O)N1CCC(c2nc(CN3C(=O)CCC3=O)cs2)CC1 [Compound 207] | 40 | 83 | 0 | – | – | – | –
37 | Cc1cc(C(F)(F)F)nn1CC(=O)N1CCC(c2nc(CN3C(=O)OC(C)(C)C3=O)cs2)CC1 [Compound 208] | 79 | 64 | 0 | – | – | – | –
